This data set in a line: DSC thermal decomposition. The format is physicochemical. To be noted: decomposition temperature by DSC. The source says: The optical and thermal properties of the pyridinium imine based dye compounds were studied. The dyes show high absorption at the desired wavelengths. In addition, the shape of the absorption spectra, that still remains critical to the disc reflectivity and formation of clean mark edges, are composed of one major band, comprised in a range of from 350 to 500 nm, preferably of from 350 to 400 nm. […] Sharp threshold of thermal decomposition within the required temperature range characterizes the new pyridinium imine based dyes which are assumed to be desirable for the application in optical layers for optical data recording. As a conclusion, the pyridinium imine based dye compounds are within the specifications which are primarily required by the industry for the use of dyes in optical data recording, in particular in the next-generation optical data recording media in the blue laser range.
Background: DSC measures the heat that a sample takes up or gives off during a temperature scan.

This is an account of results in patent EP1624029A1, “New Pyridinium imine based dyes and their use in optical layers for optical data recording” (CLARIANT INTERNATIONAL LTD., priority 2004, dated 2006).

`CC[n+]1ccccc1N=CC1C(=O)NC(=O)NC1=O` [Example 1]: the “DSC (decomp.)” value came out at 326 °C.
